Series [1] has as its target T1, recombinant human oxytocin receptors (Homo sapiens, UniProt P30559).
T1 construct: expressed in transfected cells; host or cells: HEK-293 (transient)
T1 sequence (P30559 1-389): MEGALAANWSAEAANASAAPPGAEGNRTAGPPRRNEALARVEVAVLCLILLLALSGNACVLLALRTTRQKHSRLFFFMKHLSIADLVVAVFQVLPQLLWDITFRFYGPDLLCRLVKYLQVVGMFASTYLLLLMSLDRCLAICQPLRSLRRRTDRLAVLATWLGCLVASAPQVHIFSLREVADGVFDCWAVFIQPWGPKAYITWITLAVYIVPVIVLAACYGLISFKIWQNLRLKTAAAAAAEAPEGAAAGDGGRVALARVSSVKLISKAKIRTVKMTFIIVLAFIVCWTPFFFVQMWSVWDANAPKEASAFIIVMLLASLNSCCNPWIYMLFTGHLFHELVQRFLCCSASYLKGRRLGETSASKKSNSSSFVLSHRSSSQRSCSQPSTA
The experiment in a line: Oxytocin receptor binding assay. The note with it: selectivity quotient, human OT versus human V1b. On the procedure: 4. Oxytocin Receptor Binding Assay
Confluent HEK-293 cells with transiently expressing recombinant human oxytocin receptors were centrifuged at 750×g at room temperature for 5 minutes. The residue was taken up in ice-cold lysis buffer (50 mM Tris-HCl, 10% glycerol, pH 7.4 and Roche complete protease inhibitor) and subjected to an osmotic shock at 4° C. for 20 minutes. The lyzed cells were then centrifuged at 750×g at 4° C. for 20 minutes, the residue was taken up in incubation buffer, and aliquots of 10^7 cells/ml were prepared. The aliquots were frozen at −80° C. until used.
On the day of the experiment, the cells were thawed, diluted with incubation buffer and homogenized using a Multipette Combitip (Eppendorf, Hamburg). […] The nonspecific binding was determined with 10^−6 M oxytocin (Bachem AG, H2510). Triplicate determinations were set up. Bound and free radioligand were separated by filtration under vacuum with Whatman GF/B glass fiber filters with the aid of a Skatron cell harvester 7000. The bound radioactivity was determined by liquid scintillation measurement in a Tricarb Beta counter, model 2000 or 2200CA (Packard).

Series [2] can be described thus: Determination of the microsomal half-life / microsomal clearance (human liver microsomes). It is filed as in vitro ADME. The note with it: pH 7.4, 0.5 μM test substance. On the procedure:
5. Determination of the Microsomal Half-Life:
The metabolic stability of the compounds of the invention was determined in the following assay.
The test substances were incubated in a concentration of 0.5 μM as follows:
0.5 μM test substance are preincubated together with liver microsomes from different species (from rat, human or other species) (0.25 mg of microsomal protein/ml) in 0.05 M potassium phosphate buffer of pH 7.4 in microtiter plates at 37° C. for 5 min. The reaction is started by adding NADPH (1 mg/mL). After 0, 5, 10, 15, 20 and 30 min, 50 μl aliquots are removed, and the reaction is immediately stopped and cooled with the same volume of acetonitrile. The samples are frozen until analyzed. The remaining concentration of undegraded test substance is determined by MSMS. The half-life (T½) is determined from the gradient of the signal of test substance/unit time plot, it being possible to calculate the half-life of the test substance, assuming first order kinetics, from the decrease in the concentration of the compound with time. The microsomal clearance (mCl) is calculated from mCl=In2/T½/(content of microsomal protein in mg/ml)×1000 […] (modified from references: Di, The Society for Biomoleculur Screening, 2003, 453-462; Obach, DMD, 1999 vol. 27. N 11, 1350-1359).

The target of series [3] is human vasopressin V1a receptor (Homo sapiens, UniProt P37288). The experiment in a line: Vasopressin V1a receptor binding assay. The note with it: selectivity quotient, human V1a versus human V1b.
human vasopressin V1a receptor, sequence (P37288 whole entry): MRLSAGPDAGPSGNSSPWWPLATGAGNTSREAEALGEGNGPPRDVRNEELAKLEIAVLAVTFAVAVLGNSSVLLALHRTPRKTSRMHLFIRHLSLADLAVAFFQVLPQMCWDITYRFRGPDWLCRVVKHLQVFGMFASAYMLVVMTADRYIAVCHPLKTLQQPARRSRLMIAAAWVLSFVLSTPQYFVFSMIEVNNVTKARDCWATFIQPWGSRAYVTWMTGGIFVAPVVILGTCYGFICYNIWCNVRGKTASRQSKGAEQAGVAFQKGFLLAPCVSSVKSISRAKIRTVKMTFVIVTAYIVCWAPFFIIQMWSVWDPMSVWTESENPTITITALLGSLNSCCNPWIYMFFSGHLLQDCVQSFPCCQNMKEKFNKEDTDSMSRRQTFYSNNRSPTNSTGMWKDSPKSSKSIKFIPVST
Series [4] addresses T2, human vasopressin V1b receptor (Homo sapiens, UniProt P47901).
T2 construct: expressed in transfected cells; host or cells: CHO-K1 (cell line hV1b_3H2_CHO)
T2 sequence (P47901 1-424): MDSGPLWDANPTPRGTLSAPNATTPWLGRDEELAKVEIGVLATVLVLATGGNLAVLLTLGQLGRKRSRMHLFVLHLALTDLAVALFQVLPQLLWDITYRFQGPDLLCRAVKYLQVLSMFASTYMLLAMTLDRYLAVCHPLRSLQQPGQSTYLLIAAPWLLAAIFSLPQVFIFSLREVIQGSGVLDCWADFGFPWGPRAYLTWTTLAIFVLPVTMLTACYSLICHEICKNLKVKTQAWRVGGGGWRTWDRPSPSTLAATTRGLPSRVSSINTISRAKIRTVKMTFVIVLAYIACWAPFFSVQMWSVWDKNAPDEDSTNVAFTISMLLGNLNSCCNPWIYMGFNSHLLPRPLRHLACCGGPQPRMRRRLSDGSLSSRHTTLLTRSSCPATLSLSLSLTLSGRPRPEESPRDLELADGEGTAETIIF
The experiment in a line: Vasopressin V1b receptor binding assay. The note with it: read-out: Ki(h-V1b)*. As to the method:
1. Vasopressin V1b Receptor Binding Assay:
The substance concentration was further diluted 1:5 in the assay mixture (2% DMSO in the mixture).
All determinations were carried out as triplicate determinations.

Counter-ions that a name gives are not always drawn.

As a reminder, the microsomal CLint is a measure of how fast metabolising enzymes remove a compound, apart from limits set by blood flow. Read a high microsomal CLint as faster metabolism. Usually Ki stands for a dissociation constant, usually derived from enzyme kinetics or from competition with a known ligand.

Consider `CCOc1ncccc1C1(OC(=O)N2CCC(N3CCN(C)CC3)CC2)C(=O)N(S(=O)(=O)c2ccc(OC)cc2)c2ccc(C#N)cc21` (racemic) [Example 35, (±)-5-Cyano-3-(2-ethoxypyridin-3-yl)-1-[(4-methoxyphenyl)sulfonyl]-2-oxo-2,3-dihydro-1H-indol-3-yl 4-(4-methylpiperazin-1-yl)piperidine-1-carboxylate], for which, in series [1], the “Ki(h-OT)/Ki(h-V1b)*” value is “++ (>25-45)”. In series [2], this molecule had a microsomal CLint at 0.5 μM of 75 to 200 µL/min/mg. The “Ki(h-V1a)/Ki(h-V1b)*” value in series [3] is “++ (>25-75)”. In addition, the Ki in series [4] was less than 0.01 µM.

Regarding `CCOc1ncccc1C1(OC(=O)N2CCN(C3CCN(C)CC3)CC2)C(=O)N(S(=O)(=O)c2ccc(OC)cc2)c2ccc(C#N)cc21` (racemic) [Example 5, (±)-5-Cyano-3-(2-ethoxypyridin-3-yl)-1-[(4-methoxyphenyl)sulfonyl]-2-oxo-2,3-dihydro-1H-indol-3-yl-4-(1-methylpiperidin-4-yl)piperazine-1-carboxylate], in series [1], the “Ki(h-OT)/Ki(h-V1b)*” value is “++ (>25-45)”. In series [2], this molecule had a microsomal CLint at 0.5 μM of 75 to 200 µL/min/mg. Also, the “Ki(h-V1a)/Ki(h-V1b)*” value in series [3] is on record as “+++ (>75)”. Also, the Ki in series [4] was less than 0.01 µM.

Consider `CCOc1ncccc1C1(OC(=O)N2CCN(C3CCN(C)CC3)CC2)C(=O)N(S(=O)(=O)c2ccccc2)c2ccc(C#N)cc21` (racemic) [Example 4, (±)-5-Cyano-3-(2-ethoxypyridin-3-yl)-2-oxo-1-(phenylsulfonyl)-2,3-dihydro-1H-indol-3-yl 4-(1-methylpiperidin-4-yl)piperazine-1-carboxylate], for which, in series [1], the “Ki(h-OT)/Ki(h-V1b)*” value is recorded as “+++ (>45)”. In series [2], this molecule came in with a microsomal CLint at 0.5 μM of less than 50 µL/min/mg. The “Ki(h-V1a)/Ki(h-V1b)*” value in series [3] was “+++ (>75)”. In series [4], the Ki was less than 0.01 µM.

With `CCOc1ncccc1C1(OC(=O)N2CCC(N3CCN(CC)CC3)CC2)C(=O)N(S(=O)(=O)c2ccccc2)c2ccc(C#N)cc21` (racemic) [Example 40, (±)-5-Cyano-3-(2-ethoxypyridin-3-yl)-2-oxo-1-(phenylsulfonyl)-2,3-dihydro-1H-indol-3-yl 4-(4-ethylpiperazin-1-yl)piperidine-1-carboxylate], the “Ki(h-OT)/Ki(h-V1b)*” value in series [1] was “+++ (>45)”. Also, the microsomal CLint at 0.5 μM in series [2] was in the range of 50 to 75 µL/min/mg. Besides, the “Ki(h-V1a)/Ki(h-V1b)*” value in series [3] is “++ (>25-75)”. The Ki in series [4] was less than 0.01 µM.

`CCOc1ncccc1C1(OC(=O)N2CCN(C3CCN(C)CC3)CC2)C(=O)N(S(=O)(=O)c2ccccc2OC)c2ccc(C#N)cc21` (single isomer, unassigned; (-)) [Example 2B, (−)-5-Cyano-3-(2-ethoxypyridin-3-yl)-1-[(2-methoxyphenyl)sulfonyl]-2-oxo-2,3-dihydro-1H-indol-3-yl-4-(1-methylpiperidin-4-yl)piperazine-1-carboxylate]: in series [1], the “Ki(h-OT)/Ki(h-V1b)*” value is recorded as “+++ (>45)”. The same molecule displayed a microsomal CLint at 0.5 μM in series [2] of 75 to 200 µL/min/mg. In addition, the “Ki(h-V1a)/Ki(h-V1b)*” value in series [3] is listed as “+++ (>75)”. Besides, in series [4], the Ki is less than 0.01 µM.

Turning to `CCOc1ncccc1C1(OC(=O)N2CCN(C3CCN(CC)CC3)CC2)C(=O)N(S(=O)(=O)c2ccccc2)c2ccc(C#N)cc21.O=C(O)C(F)(F)F` (racemic) [Example 10, (±)-5-Cyano-3-(2-ethoxypyridin-3-yl)-2-oxo-1-(phenylsulfonyl)-2,3-dihydro-1H-indol-3-yl 4-(1-ethylpiperidin-4-yl)piperazine-1-carboxylate, trifluoroacetic acid salt], in series [1], the “Ki(h-OT)/Ki(h-V1b)*” value is “+++ (>45)”. Moreover, the microsomal CLint at 0.5 μM in series [2] was less than 50 µL/min/mg. Also, the “Ki(h-V1a)/Ki(h-V1b)*” value in series [3] was “+++ (>75)”. Besides, in series [4], the Ki was less than 0.01 µM.

For `CCOc1ncccc1C1(OC(=O)N2CCN(C3CCN(C)CC3)CC2)C(=O)N(S(=O)(=O)c2ccccc2OC)c2ccc(C#N)cc21` (racemic) [Example 2, (±)-5-Cyano-3-(2-ethoxypyridin-3-yl)-1-[(2-methoxyphenyl)sulfonyl]-2-oxo-2,3-dihydro-1H-indol-3-yl-4-(1-methylpiperidin-4-yl)piperazine-1-carboxylate], the “Ki(h-OT)/Ki(h-V1b)*” value in series [1] is given as “+++ (>45)”. Moreover, the microsomal CLint at 0.5 μM in series [2] was 75 to 200 µL/min/mg. The “Ki(h-V1a)/Ki(h-V1b)*” value in series [3] was “+++ (>75)”. The Ki in series [4] is less than 0.01 µM.

In the case of `CCOc1ncccc1C1(OC(=O)N2CCN(C3CCN(C)CC3)CC2)C(=O)N(S(=O)(=O)c2ccccc2)c2ccc(C#N)cc21` (single isomer, unassigned; (-)) [Example 4B, (−)-5-Cyano-3-(2-ethoxypyridin-3-yl)-2-oxo-1-(phenylsulfonyl)-2,3-dihydro-1H-indol-3-yl 4-(1-methylpiperidin-4-yl)piperazine-1-carboxylate], the “Ki(h-OT)/Ki(h-V1b)*” value in series [1] is reported as “+++ (>45)”. In addition, in series [2], the intrinsic clearance (microsomal CLint) at 0.5 μM is less than 50 µL/min/mg. Also, the “Ki(h-V1a)/Ki(h-V1b)*” value in series [3] is recorded as “+++ (>75)”. Further, the Ki in series [4] was less than 0.01 µM.

As to `CCOc1ncccc1C1(OC(=O)N2CCN(C3CCNCC3)CC2)C(=O)N(S(=O)(=O)c2ccc(OC)cc2OC)c2ccc(C#N)cc21` (racemic) [Example 25, (±)-5-Cyano-1-[(2,4-dimethoxyphenyl)sulfonyl]-3-(2-ethoxypyridin-3-yl)-2-oxo-2,3-dihydro-1H-indol-3-yl-4-piperidin-4-ylpiperazine-1-carboxylate as bis(trifluoroacetic acid) salt], the “Ki(h-OT)/Ki(h-V1b)*” value in series [1] is on record as “+ (15-25)”. Besides, in series [2], the microsomal CLint at 0.5 μM lay within 50 to 75 µL/min/mg. Moreover, the “Ki(h-V1a)/Ki(h-V1b)*” value in series [3] is on record as “+++ (>75)”. The Ki in series [4] is less than 0.01 µM.

In the case of `CCOc1ncccc1C1(OC(=O)N2CCN(C3CCNCC3)CC2)C(=O)N(S(=O)(=O)c2ccccc2)c2ccc(C#N)cc21` (racemic) [Example 28, (±)-5-Cyano-3-(2-ethoxypyridin-3-yl)-2-oxo-1-(phenylsulfonyl)-2,3-dihydro-1H-indol-3-yl 4-piperidin-4-ylpiperazine-1-carboxylate as bis(trifluoroacetic acid) salt], the “Ki(h-OT)/Ki(h-V1b)*” value in series [1] is given as “+++ (>45)”. This molecule also registered an intrinsic clearance (microsomal CLint) at 0.5 μM in series [2] of less than 50 µL/min/mg. Also, the “Ki(h-V1a)/Ki(h-V1b)*” value in series [3] is “++ (>25-75)”. In series [4], the Ki was in the range of 0.01 to 0.05 µM.

With `CCOc1ncccc1C1(OC(=O)N2CCC(N3CCN(C)CC3)CC2)C(=O)N(S(=O)(=O)c2ccccc2OC)c2ccc(C#N)cc21` (racemic) [Example 32, (±)-5-Cyano-3-(2-ethoxypyridin-3-yl)-1-[(2-methoxyphenyl)sulfonyl]-2-oxo-2,3-dihydro-1H-indol-3-yl 4-(4-methylpiperazin-1-yl)piperidine-1-carboxylate], in series [1], the “Ki(h-OT)/Ki(h-V1b)*” value is recorded as “+++ (>45)”. Further, in series [2], the microsomal CLint at 0.5 μM lay in the range of 75 to 200 µL/min/mg. For the same molecule, the “Ki(h-V1a)/Ki(h-V1b)*” value in series [3] is given as “++ (>25-75)”. Besides, in series [4], the Ki was 0.01 to 0.05 µM.

For the origin of these results see patent US9422264B2, “Carbamate-substituted oxindole derivatives and use thereof for the treatment of vasopressin-dependent diseases” (AbbVie Deutschland GmbH & Co. KG, priority 2007, dated 2016).
